The record followed here is ChEMBL document CHEMBL2176918, “Design and optimization of pyrazinecarboxamide-based inhibitors of diacylglycerol acyltransferase 1 (DGAT1) leading to a clinical candidate dimethylpyrazinecarboxamide phenylcyclohexylacetic acid (AZD7687)” (J Med Chem, 2012).

Structures are written as SMILES. ≈ marks a conversion by molar mass, not a printed value. Bounds are passed on as bounds.

Usually fraction unbound stands for free concentration divided by total concentration. As usually defined, the IC50 is the concentration that gives 50% inhibition. High values mean a need for much substance, low ones inhibition by little substance. The solubility is how much of the substance goes into solution per volume. What is called Papp A→B is how fast a substance crosses the layer from the apical side. The term half-life denotes how long it takes for the measured level to halve. A low value points to rapid decline. As a reminder, the chromatographic logD is a lipophilicity value derived from retention on a column. A lower chromatographic logD goes with lower lipophilicity. A word on the bioavailability: it is dose-corrected exposure relative to a reference, in per cent. A low value points to poor availability. The logD is the decadic logarithm of the distribution of all forms, ionised or not, between an organic phase and buffer at a given pH. Lower therefore signals lower lipophilicity.

Series [1] in a line: Fraction unbound in human plasma at 37 degC by LC-UV/MS method based equilibrium dialysis method. (In general: Equilibrium dialysis compares concentrations on both sides of a semipermeable membrane.)
Series [2] has as its target T1, Diacylglycerol O-acyltransferase 1 (Homo sapiens, UniProt O75907).
T1 sequence (O75907 whole entry): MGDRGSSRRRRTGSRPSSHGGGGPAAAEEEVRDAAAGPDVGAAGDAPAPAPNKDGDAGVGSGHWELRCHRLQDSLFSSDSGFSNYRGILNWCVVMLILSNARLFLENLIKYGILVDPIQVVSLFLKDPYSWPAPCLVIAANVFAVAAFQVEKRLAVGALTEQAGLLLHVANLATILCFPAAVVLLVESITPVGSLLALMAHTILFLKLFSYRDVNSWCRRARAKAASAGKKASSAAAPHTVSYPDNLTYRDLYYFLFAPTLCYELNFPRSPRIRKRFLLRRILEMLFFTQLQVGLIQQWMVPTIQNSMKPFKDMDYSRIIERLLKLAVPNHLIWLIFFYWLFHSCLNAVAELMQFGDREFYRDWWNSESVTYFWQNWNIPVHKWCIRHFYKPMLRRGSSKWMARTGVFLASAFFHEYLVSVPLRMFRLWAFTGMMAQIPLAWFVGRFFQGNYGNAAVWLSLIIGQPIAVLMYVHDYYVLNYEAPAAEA
Description: Inhibition of human recombinant DGAT1 expressed in Sf9 cells by liquid scintillography

Series [3] is described as follows: Solubility in 0.1 M phosphate buffer at pH 7.4 at 25 degC incubated for 24 hrs.
Series [4] is described as follows: Apparent permeability from apical to basolateral side in MDCK cells at pH 7.4. To be noted: dog.
The target of series [5] is T2, Sterol O-acyltransferase 1 (Homo sapiens, UniProt P35610).
T2 sequence (P35610 whole entry): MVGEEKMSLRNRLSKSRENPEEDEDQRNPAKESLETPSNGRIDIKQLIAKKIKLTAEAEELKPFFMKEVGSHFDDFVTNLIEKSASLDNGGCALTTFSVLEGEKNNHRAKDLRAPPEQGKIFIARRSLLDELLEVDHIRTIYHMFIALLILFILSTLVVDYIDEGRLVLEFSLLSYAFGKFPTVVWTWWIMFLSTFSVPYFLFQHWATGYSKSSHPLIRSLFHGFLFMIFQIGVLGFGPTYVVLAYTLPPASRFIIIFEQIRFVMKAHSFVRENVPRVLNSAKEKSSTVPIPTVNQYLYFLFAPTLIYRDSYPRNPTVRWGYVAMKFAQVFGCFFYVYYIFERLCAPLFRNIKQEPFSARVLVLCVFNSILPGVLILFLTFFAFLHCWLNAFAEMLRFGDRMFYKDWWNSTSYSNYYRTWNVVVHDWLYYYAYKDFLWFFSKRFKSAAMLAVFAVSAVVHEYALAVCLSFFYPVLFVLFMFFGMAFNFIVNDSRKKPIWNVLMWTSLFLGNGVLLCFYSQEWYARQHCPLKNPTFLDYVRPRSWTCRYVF
Description: Inhibition of human ACAT1 by liquid scintillography

Series [6] can be described thus: Half life in Han-Wistar rat at 2.54 to 5.4 uM/kg, po. The class given is ADME, organism-based. To be noted: in vivo.
Series [7] in a line: Intrinsic clearance in rat hepatocytes assessed as parent compound disappearance at 1 uM per 10^6 cells. Conditions: read-out: CLH. The class given is ADME, cell-based, Hepatocyte.
A short description of series [8]: Apparent permeability from apical to basolateral side in human Caco2 cells at pH 7.4. It counts as ADME, cell-based. Conditions: Caco-2, pH 7.4. A general note: Passage across Caco-2 layers is used to estimate intestinal permeability.
A short description of series [9]: Lipophilicity, log D of the compound at pH 7.4 by chromatographic method. Conditions: buffer.
The nature of series [10]: Oral bioavailability in rat. To be noted: in vivo.
The nature of series [11]: Stability in pH 7.8 buffer assessed as acyl migration incubated for 45 mins. The class given is physicochemical. To be noted: pH 7.8, 0.75 h.
Series [12] can be described thus: Stability in pH 7.8 buffer assessed as compound degradation incubated for 45 mins. Conditions: pH 7.8, 0.75 h. It counts as physicochemical.
Series [13] can be described thus: Octanol/water partition coefficient, log D of the compound at pH 7.4. The class given is physicochemical.

In [1], `Cc1nc(C)c(-c2ccc3c(c2)CC[C@]32CC[C@@H](CC(=O)O)CC2)nc1C(N)=O` gave a fraction unbound of 0.013. For the same compound, the IC50 was found to be 30 nM in series [2] and 2400 nM in [5]. In addition, in [3], the solubility at 24 h was 562 µM (≈ 221 µg/mL). Further, in series [4], the Papp A→B turned out to be 12 ×10⁻⁶ cm/s. Also, the half-life in series [6] was 7.5 h. The hepatocyte CLint at 1 µM in series [7] was below 2 µL/min/1e6 cells.
In the case of `Cc1ncc(C(N)=O)nc1-c1ccc([C@H]2CC[C@H](CC(=O)O)CC2)cc1`, the Papp A→B in series [8] is 35 ×10⁻⁶ cm/s. Further, the IC50 in series [2] is 310 nM; in series [5] it was above 33000 nM. The same compound showed a solubility at 24 h in [3] above 100 µM. The hepatocyte CLint at 1 µM in [7] was below 6 µL/min/1e6 cells. The compound further came in with a chromatographic logD in series [9] of 0.3.
For `Cc1nc(C)c(-c2ccc(C34CCC(C(=O)O)(CC3)CC4)cc2)nc1C(N)=O`, the fraction unbound in [1] came to 0.006. Also, the IC50 in series [2] came out at 80 nM; in series [5] it was 15000 nM. In addition, the solubility at 24 h in [3] is 113 µM (≈ 42.9 µg/mL). Also, the Papp A→B in series [4] came to 13 ×10⁻⁶ cm/s. This compound also had a half-life in series [6] of 7.3 h. Also, in [7], the hepatocyte CLint at 1 µM is below 2 µL/min/1e6 cells. Besides, in series [9], the chromatographic logD is 1.6.
`NC(=O)c1cncc(-c2ccc([C@H]3CC[C@H](CC(=O)O)CC3)cc2)n1` gave a fraction unbound in [1] of 0.035. In addition, the Papp A→B in series [8] is 29 ×10⁻⁶ cm/s. This compound had a bioavailability in [10] of 62%. The IC50 was 1900 nM in series [2] and above 100000 nM in series [5]. The same compound registered a chromatographic logD in [9] below 0.1.
As for `Cc1nc(C)c(-c2ccc([C@H]3CC[C@H](CC(=O)O[C@@H]4O[C@H](C(=O)O)[C@@H](O)[C@H](O)[C@H]4O)CC3)cc2)nc1C(N)=O`, the Stability entry in series [11] and in [12] was “Stable” in each case.
As for `Cc1nc(C)c(-c2ccc([C@H]3CC[C@H](CC(=O)NC(C)(C)C(=O)O)CC3)cc2)nc1C(N)=O`, in [1], the fraction unbound worked out at 0.078. In series [8], the Papp A→B came to 0.71 ×10⁻⁶ cm/s. The compound further registered a bioavailability in series [10] of 19%. The concentration for half-maximal inhibition (IC50) in series [2] amounted to 110 nM. This compound gave a solubility at 24 h in series [3] of 86 µM (≈ 38.9 µg/mL). This compound had a chromatographic logD in [9] of 0.7.
As to `Cc1ncc(-c2ccc([C@H]3CC[C@H](CC(=O)O)CC3)cc2)nc1C(N)=O`, the log distribution coefficient (logD) in [13] is 1.
`Cc1nc(C)c(-c2ccc([C@H]3CC[C@H](CCC(=O)O)CC3)cc2)nc1C(N)=O` came in with a logD in series [13] of 1.6.
